Results taken from patent US20230303481A1, “LONG-ACTING LOW-ADDICTION HNK DERIVATIVE AND PREPARATION METHOD THEREFOR” (SHENZHEN RUIJIAN BIOTECHNOLOGY CO., LTD, priority 2020, published 2023).
Entries after “also recorded” stand apart in the source; their conditions may differ. Where a name gives a salt, the structure may show the parent alone.

Columns and labels:
mice [1] = test: Forced swimming test (FST), immobility time; format: in vivo; settings: for antidepressant effect: dose not given; for course of antidepressant efficacy within 7 days: 1 hour to 7 days
Procedure: One hour before the forced swimming test (FST), the mice were transferred to the laboratory. The test was conducted under normal light condition and monitored by a digital camera. During the test, the mice were individually placed in transparent glass cylinders (28.5 cm in height, 14 cm in diameter) filled with 20 cm height of water (23±1° C.). On the first day, the mice were trained for 6 minutes and then removed from the cylinder. On the second day, the mice were administered saline, HNK, Compound I5, Compound C, and Compound D, and after different time periods, their immobility time was tested. During the last 4 minutes of the entire 6-minute swimming test, the static time was recorded through EthoVision XT (Noldus, Netherlands) of Noldus system. The static time was defined as passive floating, that is there was no other movement except the movements necessary to keep the animal’s head above the water. After every two to three tests, the water in the cylinders was replaced. After the swimming test, the mice were removed from the water and dried under an infrared lamp.
The mice were given 1 mg (A), 10 mg (B) and 30 mg (C) of HNK and Compund I5 by intragastric administration, respectively, and their immobility time was measured after 1 hour and 7 days. The percentage of immobility time is expressed as mean ± SEM. *p<0.05, **p<0.01, compared to base test. Mice of each group was N=8. Saline: saline group; I5: Compound I5 treatment group; HNK: 2R,6R-hydroxynorketamine treatment group.

mice [2] = test: Behavioral sensitization experiment (spontaneous activity measurement); format: in vivo, Male C57BL/6J mice; settings: 5 mg, 10 mg, 30 mg intragastric once a day for 7 days, 7 days withdrawal, challenge on day 15
Procedure: (§1) Animals: Male C57BL/6J mice of 8-12 weeks old were randomly divided into groups, 10 mice in each group, with body weight of 18-22 g, fed at room temperature (22±1° C.), under humidity of (50±10)%, illumination time from 8:00 to20:00. The mice had free access to food and water, and adapted to the experimental environment for at least 2-3 days before the experiments. All experiments were conducted from 8:00 to 16:00.
1.1 Small animal spontaneous activity measurement: An animal spontaneous activity infrared analysis system consists of a spontaneous activity box, an infrared probe device and a data acquisition system. The size of the spontaneous activity box is 40 cm × 40 cm × 65 cm, with sound isolation and light isolation, and mounted with a ventilation device. The activity statuses of the animals were recorded by the infrared probe, and the numbers of spontaneous activities of the animals were calculated. In order to test the effect of drugs on spontaneous activities of mice, the mice were randomly divided into 4 groups with 10 mice in each group. The Groups included: vehicle, I5, C, D (5.0, 10.0, 30.0 mg/kg), mor (10 mg/kg). The mice were administrated intragastrically once a day in the morning for 7 consecutive days; after that, the drugs withdrew for 7 days (without any treatment). On the 15th day, mice in each group were given Veh and the drugs (5.0, 10.0, 30.0 mg/kg) by intragastric administration to stimulate. Spontaneous activity of the mice within 1 hour was measured immediately after administration at d1, d7 and d15.
Statistical analysis: Experimental data were expressed as X±SEM. Graphpad software was used for statistical analysis, and t-test was used for comparison between two groups. One-way ANOVA analysis was used for comparison among multiple groups, and then LSD method was used for pairwise comparison.

mice [3] = test: Position preference (CPP) experiment, three-room system; format: in vivo, Male C57BL/6J mice; settings: 5 mg, 10 mg, 30 mg intragastric, 6 days training, residence time in white box within 15 min
Procedure: as §1
1.2 CPP experiment: A three-room CPP system includes black and white boxes (25 cm × 25 cm × 30 cm) at left and right sides, separated by a middle box (10 cm × 25 cm × 30 cm). During the experiment, mice were put into the middle box and could freely move to the black and white boxes. A door with the size of 5 cm × 5 cm was arranged between the middle box and each of the black and white boxes. The experiment adopted a biased procedure, which had three stages of pre-test, training, and test stages. During the whole experiment, the environmental conditions such as light, color and smell in the boxes were guaranteed to be consistent.
Pre-test stage: On days 1-3, the spacer plates between the boxes were removed, and all mice were put into the middle box after being injected with saline subcutaneously, allowing them to move freely in the boxes for 15 min, once a day for 3 consecutive days. The residence time of the mice in the black and white boxes was respectively recorded to determine the natural preference of the mice. The mice were trained with the non-natural preference box as the companion medicine box. […]
Test stage: on day 10, the spacer plates were removed, and the mice were put into the middle box allowing to move freely. At the same time, the residence time of the mice in the white box within 15 min were recorded.
Statistical analysis: Experimental data were expressed as X±SEM. […]
Position preference was tested by a three-room system. […] After continuous training for 6 days, the test was carried out, and the residence times of the mice within 15 min in the white box were recorded. […]

[4] = Applicant's experimental studies on addiction of HNK (general statement); format: in vivo
[5] = mice, 1 mg intragastric, measured after 1 hour and 7 days

Question: What does the source list for CN[C@@]1(c2ccccc2Cl)CCC[C@@H](OC(=O)c2ccccc2)C1=O [Compound C]?
Answer: antidepressant effect (immobility time, forced swimming) (mice [1]; mice, 30 mg): no antidepressant effect; antidepressant effect (mice [1]; mice): no antidepressant effect; behavioral sensitization effect on mice (mice [2]): behavioral sensitizing effect; also recorded: behavioral sensitization effect; position preference effect on mice (mice [3]): induced position preference

Question: With N[C@]1(c2ccccc2Cl)CCC[C@H](OC(=O)c2ccc(CN3CCOCC3)cc2)C1=O [Compound D] as the compound, how does the “antidepressant effect (immobility time, forced swimming)” value (mice [1]; mice, 30 mg) read?
Answer: Its value is “no antidepressant effect”.

Question: What about the antidepressant effect (mice [1]; mice) of the same compound?
Answer: The antidepressant effect was “no antidepressant effect”.

Question: And the “behavioral sensitization effect on mice” value (mice [2])?
Answer: The value was “behavioral sensitizing effect; also recorded: behavioral sensitization effect”.

Question: And the “position preference effect on mice” value (mice [3])?
Answer: Its value is “induced position preference”.

Question: For CN(C)c1ccc(C(=O)O[C@@H]2CCC[C@@](N)(c3ccccc3Cl)C2=O)cc1 [Compound I5, (2R, 6R)-6-p-dimethylaminobenzoyloxydemethylketamine dihydrochloride], which “antidepressant effect (immobility time, forced swimming)” value (mice [1]; [5]) is on record?
Answer: The value was “no antidepressant effect”.

Question: And the “antidepressant effect (immobility time, forced swimming)” value (mice [1]; mice, 10 mg intragastric)?
Answer: Its value is “had antidepressant effect”.

Question: And the “course of antidepressant efficacy within 7 days” value (“course” for short) (mice [1]; mice, 10 mg intragastric)?
Answer: Its value is “substantially did not decrease within 7 days”.

Question: What about the “antidepressant effect (immobility time, forced swimming)” value (mice [1]; mice, 30 mg) of the same compound?
Answer: The value was “had antidepressant effect”.

Question: And the “course” value (mice [1]; mice, 30 mg intragastric)?
Answer: Its value is “substantially did not decrease within 7 days”.

Question: What about the “antidepressant effect at the 7th day after administration (reduction in immobility time)” value (mice [1]; mice, compared with HNK-treated group, 10 mg and 30 mg groups) of the same compound?
Answer: The value was “significant antidepressant effect”.

Question: What about the “behavioral sensitization effect on mice” value (mice [2]; dihydrochloride) of the same compound?
Answer: Its value is “no behavioral sensitization effect; also recorded: non-sensitization effect”.

Question: What about the “position preference effect on mice” value (mice [3]; dihydrochloride) of the same compound?
Answer: Its value is “no position preference effect; also recorded: non-position preference effect”.

Question: For N[C@@]1(c2ccccc2Cl)CCC[C@@H](O)C1=O [HNK, (2R,6R)-6-hydroxydemethylketamine, reference compound], which “duration of efficacy after administration” value (mice [1]; general statement) is on record?
Answer: Its value is “basically lost activity within one week”.

Question: And the “antidepressant effect (immobility time, forced swimming)” value (mice [1]; [5])?
Answer: Its value is “no antidepressant effect”.

Question: What about the “antidepressant effect (immobility time, forced swimming)” value (mice [1]; mice, 10 mg intragastric) of the same compound?
Answer: Its value is “had antidepressant effect”.

Question: What about the “course” value (mice [1]; mice, 10 mg intragastric) of the same compound?
Answer: The value was “decreased rapidly within 7 days, and substantially had no effect on the 7th day”.

Question: What about the “antidepressant effect (immobility time, forced swimming)” value (mice [1]; mice, 30 mg) of the same compound?
Answer: The value was “had antidepressant effect”.

Question: What about the “course” value (mice [1]; mice, 30 mg intragastric) of the same compound?
Answer: The value was “decayed rapidly within 7 days, and substantially had no effect on the 7th day”.

Question: What about the addiction [4] of the same compound?
Answer: The addiction was “a certain degree of addiction”.
